Measurements from US20160144021A1, “Vaccine Composition And Method Of Use” (MEDIMMUNE, LLC, priority 2013, published 2016).

Assays:
Assay type in all cases: in vivo
RSV sF protein = assay: IFNγ ELISPOT of splenocytes, naive Sprague Dawley rats; conditions: Day 46, 4 days post RSV challenge
Procedure: Systemic cellular immune responses to vaccination were evaluated in all available animals at Day 46, 4 days post RSV challenge. For each of the groups, individual splenocyte samples were prepared. T-cell readouts were assessed by ELISPOT counts of IFNγ-secreting cells following a 36-48 hour restimulation with RSV sF. Significance was calculated using GraphPad Prism 1-way ANOVA with either Tukey or Bonferroni post test with a significance cutoff of p<0.05.

[1] = test system: RSV-F-derived MHC I restricted peptide; assay: Granzyme B ELISPOT of splenocytes, naive BALB/c mice; conditions: splenocytes 4 days post challenge
Excerpt: FIGS. 1A-F are graphs showing immune responses to adjuvanted RSV sF vaccines in naïve BALB/c mice. Mice (N=7 per group) were immunized at days 0 and 14 with the indicated vaccines and challenged with 6 log10 PFU of RSV at day 28. Representative data shown from 1 of 2 experiments run with all groups. (A) Lung Viral Titers. Residual virus in the lungs of animals 4 days post challenge was quantified by plaque assay. Individual results are presented in log10, along with a bar representing the group geometric mean. Individuals with undetectable titers were scored at the assay limit of detection (LOD), ˜1.4 log10. (B) Serum RSV-GFP Neutralizing Titers. […] Individuals with undetectable titers were scored at the assay limit of detection (LOD) of 3.3 log2, indicated by a dashed line. […] Shown are the specific IFNγ, IL-5, IL-13, and IL-17 responses to an immunodominant MHC II restricted RSV-F peptide pool calculated by subtracting media control values from test values in multiplexed cytokine analysis. […] Day 28 sera (n=7 per group) were evaluated for F-specific IgG1 and IgG2a isotypes by endpoint titer ELISA. […]
Th1-type responses to a vaccine such as those seen with RSV sF+GLA-SE may support the development of strong CD8 T cell responses. […] To evaluate the cytolytic potential of these responding cells, we evaluated F-specific Granzyme B secretion by ELISPOT.

RSV A2 = assay: Serum RSV neutralizing titers, naive cotton rats; conditions: day 42, naive cotton rats
Procedure: RSV neutralizing antibody titers in heat-inactivated mouse sera at indicated timepoints were measured using a GFP-tagged RSV A2 micro-neutralization assay as previously described (Bernstein D I, et al. (2012) Phase 1 study of the safety and immunogenicity of a live, attenuated respiratory syncytial virus and parainfluenza virus type 3 vaccine in seronegative children. Pediatr Infect Dis J 31: 109-114). Briefly, confluent Vero cell monolayers were infected with 500 PFU of virus alone or virus pre-mixed with serially diluted serum samples, then incubated at 33° C. and 5% CO2 for 22 hrs. Plates were washed of free virus and GFP fluorescent viral foci were enumerated using the IsoCyte image scanner (Blueshift, Sunnyvale, Calif.).
Cotton rats are a well established model for RSV studies and are often used in the preclinical evaluation of potential RSV vaccine candidates. To confirm the immune profile of GLA-SE adjuvanted RSV sF vaccine in a second RSV challenge model, individual cotton rats were administered the same RSV sF subunit vaccines at similar doses used for mice. RSV sF at 0.3 μg without adjuvant or adjuvanted with GLA, SE, GLA-SE, or alum was given intramuscularly at days 0 and 22.

For “RSV sF: RSV soluble F protein, amino acids 1-524 of the RSV A2 F sequence lacking the transmembrane domain, given without adjuvant”, the “F-specific IFNγ ELISPOT responses” value (RSV sF protein; 10 μg RSV sF) was 64.00 SFU/million cells, the “F-specific IFNγ ELISPOT responses” value (RSV sF protein; 100 μg RSV sF) was 87.78 SFU/million cells and the “F-specific Granzyme B ELISPOT responses (mean)” value [1] was 18. For the same substance, the “RSV neutralizing titers (mean)” value (RSV A2) was 4.3 log2.
